In patent publication US5783587A, “Benzoyl Piperidines/pyrrolidines for enhancing synaptic response” (The Regents of the University of California, priority 1997, dated 1998):

Tested on: not given
Assay: not given
Conditions: following peripheral administration in humans; cited from earlier work

SMILES | fraction of drug converted to anisoyl-GABA
COc1ccc(C(=O)N2CCCC2=O)cc1 [aniracetam, N-anisoyl-2-pyrrolidinone] | about 80%

Tested on: AMPA receptors
Assay: In vitro physiological testing: field EPSPs in slices of rat hippocampus (CA1)
Format: cell-based, rat (Sprague-Dawley)
Conditions: rat hippocampal slices, 15-minute perfusion, paired-pulse, second response
Experimental: The physiological effects of the compounds of this invention were determined by in vitro tests using slices of rat hippocampus according to the following procedure. Excitatory responses (field EPSPs) were measured in hippocampal slices, which are maintained in a recording chamber continuously perfused with artificial cerebrospinal fluid (ACSF). During a 15-minute interval, the perfusion medium was switched to one containing various concentrations of the test compounds. Responses collected immediately before and at the end of drug perfusion were superimposed in order to calculate both the percent increase in EPSP amplitude and the percent increase in the width of the response at one-half the peak height (half-width).
To conduct these tests, the hippocampus was removed from anesthetized, 2-month old Sprague-Dawley rats, and in vitro slices (400 micrometers thick) were prepared and maintained in an interface chamber at 35° C. using conventional techniques. This is the procedure used by Dunwiddie and Lynch, as reported in J. Physiol. 276:353-367 (1978). The chamber was constantly perfused at 0.5 mL/min with ACSF containing (in mM): NaCl, 124; KCl, 3; KH2 PO4, 1.25; MgSO4, 2.5; CaCl2, 3.4; NaHCO3, 26; glucose, 10; and L-ascorbate, 2. A bipolar nichrome stimulating electrode was positioned in the dendritic layer (stratum radiatum) of the hippocampal subfield CA1 close to the border of subfield CA3.
Current pulses (0.1 msec) through the stimulating electrode activated a population of the Schaffer-commissural (SC) fibers, which arise from neurons in the subdivision CA3 and terminate in synapses on the dendrites of CA1 neurons. Activation of these synapses causes them to release the transmitter glutamate. Glutamate binds to the post-synaptic AMPA receptors, which then transiently open an associated ion channel and permit a sodium current to enter the postsynaptic cell. This current results in a voltage in the extracellular space (the field excitatory post-synaptic potential or field "EPSP"), which is recorded by a high impedance recording electrode positioned in the middle of the stratum radiatum of CA1.
With the intensity of the stimulation current adjusted to produce half-maximal EPSPs (typically about 1.5-2.0 mV), paired stimulation pulses were given every 40 seconds with an interpulse interval of 200 msec. The field EPSPs of the second response were digitized and analyzed to determine amplitude and half-width. If the responses are stable for 15-30 minutes (baseline), test compounds were added to the perfusion lines for a period of about 15 minutes. The perfusion was then changed back to regular ACSF.
Paired-pulse stimulation is used in this type of test because stimulation of the SC fibers in part activates interneurons that generate an inhibitory postsynaptic potential (IPSP) in the pyramidal cells of CA1. This feed-forward IPSP typically sets in after the EPSP reaches its peak. The feed-forward IPSP accelerates the repolarization and shortens the decay phase of the EPSP, and could thereby partially mask the effects of the test compounds. One of the relevant features of the feed-forward IPSP is that it cannot be reactivated for several hundred milliseconds following a stimulation pulse. This phenomenon can be employed to advantage to eliminate IPSP by delivering paired pulses separated by 200 milliseconds and using the second ("primed") response for data analysis.
The field EPSP recorded in field CA1 after stimulation of CA3 axons is known to be mediated by AMPA receptors: the receptors are present in the synapses, as reported by Kessler, et al., Brain Res. 560:337-341 (1991), and drugs that selectively block the receptor selectively block the field EPSP. […] See, for example, Staubli, et al., Psychobiology 18:377-381 (1990); Xiao, et al., Hippocampus 1:373-380 (1991); and Staubli, et al., Hippocampus 2:49-58 (1992). […]

SMILES | estimated concentration required to increase the amplitude of the EPSP to 25% above baseline (+25% Amplitude) [mM] | estimated concentration required to increase the half-width of the EPSP by 50% (+50% Half-Width) [mM]
COCc1ccc2c(c1)OC1CCCN1C2=O (racemic) [Compound VI, (R, S)-6-Methoxymethyl-2,3-dihydro-1H-pyrrolo[2,1-b][1,3]benzoxazine-9(3aH)-one] | 0.1 | 0.2
COCc1ccc2c(c1)C(=O)N1CCCC1O2 (racemic) [Compound VII, (R,S)-7-Methoxymethyl-2,3-dihydro-1H-pyrrolo[2,1-b][1,3]benzoxazine-9(3aH)-one] | 0.3 | 0.2
COCc1ccc(C(=O)N2CCCCC2)cc1 [Compound I, 1-(4'-Methoxymethylbenzoyl)piperidine] | 0.3 | 0.3
COCc1cccc(C(=O)N2CCCCC2)c1 [Compound II, 1-(3'-Methoxymethylbenzoyl)piperidine] | 0.3 | > 1
CCOCc1ccc(C(=O)N2CCCCC2)cc1 [Compound III, 1-(4'-Ethoxymethylbenzoyl)piperidine] | > 1 | 0.2
O=C(c1ccc(CO)cc1)N1CCCCC1 [Compound IV, 1-(4'-Hydroxymethylbenzoyl)piperidine] | 1 | > 1
O=C(c1ccc(COc2ccc3c(c2)OCO3)cc1)N1CCCCC1 [Compound V, 1-(4'-(3",4"-Methylenedioxyphenoxy)-methylbenzoyl)piperidine] | 0.05 | > 0.1
